Measured values from patent publication US20030129664A1, “Novel Assays” (priority 1999, published 2003).

Experiments:
[1] = target: T1, RP-23 receptor (Mus musculus, UniProt P30731); assay: FLIPR functional assay of intracellular calcium mobilization (Fluo-3) in HEK-293 cells expressing RP-23 receptor with Gαqi5; assay type: cell-based
T1 construct: expressed in transfected cells; G418 and hygromycin selection
Procedure: The RP-23 gene (Harrigan et al., Molecular Endocrinol. 5:1331-1338 (1991)) was obtained and used to generate a mammalian expression vector. Specifically, 40 μg of RP-23 receptor DNA was digested with 100 units of EcoRI enzyme (Pharmacia) (Lambda ZAP II) at 37 degrees C., isolated on a 1% agarose gel and subcloned into the Eco RI site of pcDNA 3.0 (InVitrogen, San Diego, Calif.). The expression vector so produced was called pcDNA 3.0-RP-23. Plasmid DNA was prepared using the Qiaprep system from Qiagen.
HEK-293 cells were transfected with pcDNA 3.0-RP-23 using the calcium-phosphate method and subsequently transfected with DNA encoding a chimeric G protein (Gαqi5). This is Gq alpha with the C-terminal amino acids changed from EYNLV to DCGLF. The entire protein was subcloned in an expression vector (pCEP, Molecular Devices). […] The presence of mRNA specific for clone RP-23 was assessed by Northern Blot Analysis and by the reverse transcriptase polymerase chain reaction (RT-PCR). […]
A functional assay was performed with FLIPR using the fluorescent calcium indicator dye Fluo-3 (Molecular Probes) on a 96 well platform. […] The cells were analyzed using the FLIPR system to measure the mobilization of intracellular calcium in response to different compounds.

[2] = tested on: parental HEK-293 cells; assay: FLIPR calcium assay in control cells (non-transfected HEK-293, other receptors or Gαqi5 alone); assay type: cell-based; settings: cells transfected with other receptors or Gαqi5 alone
Procedure: A functional assay was performed with FLIPR using the fluorescent calcium indicator dye Fluo-3 (Molecular Probes) on a 96 well platform. HEK-293 cells, either expressing the receptor with the chimeric G protein (Gαqi5) or wild type cells were loaded with Fluo-3 as follows. Stable HEK-293 clones expressing RP-23 receptor with Gαqi5and/or cells expressing RP-23R alone, or parental cells were plated at a density of 70,000 cells/well in a 96 well plate. On the day of the experiment, the RP-23 receptor expressing cells were loaded with fluorescent solution (Dulbecco's modified medium with 10% fetal bovine serum containing 4 μM Fluo-3 and […] pluronic acid). The cells were incubated at 37° C. for one hour in a humidified chamber. Following the incubation, cells were Washed five times in Hanks' with 20 mM Hepes and 0.1% BSA (pH 7.4). The cells were analyzed using the FLIPR system to measure the mobilization of intracellular calcium in response to different compounds.
HEK-293 cells that endogenously express some GPCRs such as PACAP receptors can be used as an internal control for assays. Background signal was established with all of the compounds in the parental HEK-293 cells (non-transfected) or parental HEK-293 cells transfected with Gαqi5 chimeric protein using the FLIPR assay. […]

T1 sequence (P30731 18-423): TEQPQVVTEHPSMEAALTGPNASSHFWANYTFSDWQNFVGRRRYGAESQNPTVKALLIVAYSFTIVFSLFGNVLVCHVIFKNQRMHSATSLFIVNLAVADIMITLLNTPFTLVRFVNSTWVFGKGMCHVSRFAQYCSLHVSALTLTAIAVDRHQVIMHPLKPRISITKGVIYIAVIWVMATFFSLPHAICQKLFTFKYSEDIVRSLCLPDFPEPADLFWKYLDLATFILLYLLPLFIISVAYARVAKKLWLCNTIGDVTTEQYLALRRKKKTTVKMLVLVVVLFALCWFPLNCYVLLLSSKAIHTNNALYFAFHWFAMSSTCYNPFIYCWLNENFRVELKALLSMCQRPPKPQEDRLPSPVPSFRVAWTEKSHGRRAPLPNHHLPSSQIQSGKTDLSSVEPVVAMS

Question: What does the source list for `CCCCCCCCCCCCC/C=C/[C@@H](O)[C@@H](N)COP(=O)(O)O` [sphingosine-1-PO4]?
Answer: calcium response (FLIPR signal) compared to control cells ([1]; HEK-293 cells expressing RP-23 receptor and Gαqi5 chimeric protein, compounds dissolved at 3 μM, compared with parental HEK-293 and HEK-293 transfected with Gαqi5): consistently elicited a significant signal; dose-response relationship of calcium response ([1]; cells transfected with RP-23 and Gαqi5): dose-response relationship; dose-response relationship of calcium response in control cells [2]: not in non-transfected cells or in cells transfected with other receptors or Gαqi5 alone
